Test results: patent US20220281830A1, “SALT” (NIPPON SHINYAKU CO., LTD., priority 2019, published 2022)
Like-named read-outs stand apart in the source and are kept apart here.

Tests used:
[1] = Rat in vivo study: plasma pharmacokinetics of MRE-269 after oral capsule dosing; design: species or system Sprague-Dawley rat
Method: Qualicaps, Nara, Japan) and given orally to male Sprague-Dawley rat (Japan SLC, Sizuoka, Japan) at a dose level of 1 mg/capsule/body. […] • The concentration of MRE-269 in plasma sample was determined by high performance liquid chromatography (HPLC) tandem mass spectrometry (LC-MS/MS). […] For LC-MS/MS, a Nexera HPLC system (Shimadzu, Kyoto, Japan) equipped with an InertSustain C18 column (2-μm particle size; 2.1 mm i.d.×50 mm; GL Science) connected to a TQ4500 or TQ5500 tandem mass spectrometer (Sciex, Framingham, Mass.) was used. The HPLC mobile phase was 0.1% formic acid (solvent A) and acetonitrile (solvent B). A gradient was run at 85% solvent B in 2.5 min at a flow rate of 0.4 mL/min and 40° C. Each analyte detected was quantified in positive ion multiple reaction monitoring mode by applying the following precursor-to-product transitions: […] • The pharmacokinetic parameters were calculated with Phoenix WinNonlin version 8.1.0 (Certara Princeton, NJ). Relative bioavailability (BA) to MRE-269 was calculated according to the following equation. Relative BA (%)=(AUC0-24(each salt)/(AUC0-24(MRE-269, mean)×100

[2] = Thermodynamic stability of the free-form crystal; type: physicochemical; conditions: free form produced according to Example 42 of PTL 1
From the text: A method for producing Compound B is disclosed in Example 42 of PTL 1. […] Thus, the present invention was completed.

[3] = MRE-269 in plasma, male Sprague-Dawley rat, oral, HPMC capsule, 1 mg/capsule/body

Q: Which results are given for `CC(C)N(CCCCOCC(=O)O)c1cnc(-c2ccccc2)c(-c2ccccc2)n1.O=S(=O)(O)CCS(=O)(=O)O` [1,2-Ethanedisulfonate salt (Pattern A), 1,2-Ethanedisulfonate salt of 2-[4-[(5,6-diphenylpyrazin-2-yl)-propan-2-ylamino]butoxy]acetic acid]?
A: t1/2 ([1]; rat, in vivo, po): 3.99 ± 2.01 h; tmax ([1]; rat, in vivo, po): 3.10 ± 2.30 h

Q: Which tmax ([1]; rat, in vivo, po) does the source give for `CC(C)N(CCCCOCC(=O)[O-])c1cnc(-c2ccccc2)c(-c2ccccc2)n1.CC(C)N(CCCCOCC(=O)[O-])c1cnc(-c2ccccc2)c(-c2ccccc2)n1.[Ca+2]` [Calcium salt (Pattern 1), Calcium salt of 2[4-[(5,6-diphenylpyrazin-2-yl)-propan-2-ylamino]butoxy]acetic acid] here?
A: 7.50 ± 3.79 h

Q: With `CC(C)N(CCCCOCC(=O)O)c1cnc(-c2ccccc2)c(-c2ccccc2)n1` [MRE-269, 2-(4-((5,6-diphenylpyrazin-2-yl)(isopropyl)amino)butoxy)acetic acid, reference compound] as the compound, how does the AUC(0-t) [1, 3] read?
A: 5620 ± 1920 ng·h/mL

Q: And the Cmax ([1]; MRE-269 in plasma, male Sprague-Dawley rat, oral, HPMC capsule, 1 mg/capsule/body, read-out: Cmax)?
A: 475 ± 142 ng/mL

Q: And the tmax ([1]; MRE-269 in plasma, male Sprague-Dawley rat, oral, HPMC capsule, 1 mg/capsule/body, read-out: tmax)?
A: 6.5 ± 3 h

Q: With `CC(C)N(CCCCOCC(=O)[O-])c1cnc(-c2ccccc2)c(-c2ccccc2)n1.[K+]` [Potassium salt, Potassium salt of 2-[4-[(5,6-diphenylpyrazin-2-yl)-propan-2-ylamino]butoxy]acetic acid] as the compound, how does the t1/2 ([1]; rat, in vivo, po) read?
A: 8.96 ± 8.00 h

Q: And the tmax ([1]; rat, in vivo, po)?
A: 3.25 ± 3.20 h

Q: With `CC(C)N(CCCCOCC(=O)[O-])c1cnc(-c2ccccc2)c(-c2ccccc2)n1.[Na+]` [Sodium salt, Sodium salt of 2-[4-[(5,6-diphenylpyrazin-2-yl)-propan-2-ylamino]butoxy]acetic acid] as the compound, how does the tmax ([1]; rat, in vivo, po) read?
A: 7.50 ± 1.91 h

Q: Which AUC0-last [1, 3] does the source give for `CC(C)N(CCCCOCC(=O)O)c1cnc(-c2ccccc2)c(-c2ccccc2)n1.NC(CO)(CO)CO` [Tromethamine salt, Tromethamine salt of 2-[4-[(5,6-diphenylpyrazin-2-yl)-propan-2-ylamino]butoxy]acetic acid] here?
A: 7170 ± 2320 ng·h/mL

Q: And the “AUC0-∞” value [1, 3]?
A: 6520 ± 1890 ng·h/mL

Q: And the Cmax [1, 3]?
A: 949 ± 555 ng/mL

Q: And the t1/2 [1, 3]?
A: 3.48 ± 0.43 h

Q: And the tmax [1, 3]?
A: 4.00 ± 3.94 h

Q: And the “relative BA” value ([1]; relative to MRE-269: AUC0-24(each salt)/AUC0-24(MRE-269, mean)×100, rat, oral, 1 mg/capsule/body)?
A: 128 ± 41%

Q: With `CC(C)N(CCCCOCC(=O)O)c1cnc(-c2ccccc2)c(-c2ccccc2)n1` [form-III crystal, 2-(4-((5,6-diphenylpyrazin-2-yl)(isopropyl)amino)butoxy)acetic acid] as the compound, how does the thermodynamic stability [2] read?
A: thermodynamically unstable
